We go through six compounds from patent US5767124A, “Polymorphic forms of a growth hormone secretagogue” (priority 1996, dated 1998).

Entries after “also recorded” stand apart in the source; their conditions may differ. Where two headings read alike, the source gives them in different places. Bounds are passed on as bounds.

Common to all, as to assay type: physicochemical
Data set [1] in a line: Solubility of CBZ-sulfonamide 1 in toluene/n-PrOH mixtures by HPLC assay. The following applies: 0% toluene in n-PrOH. The protocol:
The temperature of both the head and pot rose from 94° C. to 98° C. during the solvent switch. Toluene and n-PrOH form an azeotrope boiling at 97.2° C. composed of 47.5% toluene and 52.5% n-PrOH. The mixture was allowed to cool gradually to 20° C. over 3h and aged for 12 h. […] The solubility of the sulfonamide in various mixtures of toluene and n-PrOH has been determined by HPLC assay: […]

Data set [2] in a line: Hygroscopicity: storage of solid forms in constant relative humidity chambers. The settings on record: for % Gain/Loss / change of sample on storage at high humidity (footnote): room temperature; for change of sample on storage at high humidity (footnote): Form II 48 hrs at 65-100% RH, Form I 96 hrs at 88 and 100% RH. As for the experimental part:
(§1) The total volatiles content (as established by TGA analysis) of solid samples of Forms I, II, III and IV upon exposure to various controlled humidities is tabulated below.
Hygroscopicity was assessed by storing the solid compound in constant relative humidity chambers. […] The results are tabulated below in Tables 1 and 2.

Data set [3] is described as follows: Total volatiles / water content (TGA) and water of hydration. The settings on record: for moles of water per mole of compound: appears to be a hygroscopic hydrate.
From the text: as §1

The nature of data set [4]: Solubility of Forms I and II in water, buffer, ethanol/water and isopropanol. As for the experimental part:
The solubility of Form I in distilled water at room temperature is >100 mg/mL. The aqueous solubility (RT) of Form II in buffered solutions (pH 4-9) is >100 mg/mL. The solubility of Form I in ethanol/water mixtures is shown below: […]

Data set [5] can be described thus: Thermal stability of neat compound (solid state, HPLC). The following applies: for thermal stability in words: neat solid; for remaining at 1008 h: 6 Wks; for remaining at 1008 h / remaining at 2856 h: read-out: % Inital; for remaining at 2856 h: 17 Wks; for remaining at 168 h: 1 Wk; for remaining at 336 h: 2 Wks; for remaining at 672 h: 4 Wks; for remaining at 4032 h: 24 Wks; for remaining at 1344 h: 8 Wks. The protocol: The solid state stability of neat compound was assessed by storage of the drug in glass screw-cap vials in the dark. Samples were assayed by HPLC and the parent compound was quantitatively analyzed. The isocratic method that was employed is outlined below:
Column: Beckman Ultrasphere ODS (250×4.6 mm, 5 μ)
Mobile Phase: 0.1% TEA, pH 4.0 with H3 PO4 :Acetonitrile (65:35)
Detection Wavelength: 228 nm
Column Temperature: Ambient
Injection Volume: 20 μL of N-[I(R)-[(1,2-dihydro-1-methanesulfonyl-spiro[3H-indole-3,4'-piperdin]-1'- yl)carbonyl]-2-(phenylmethyl-oxy)ethyl]-2-amino-2-methylpropanamide methanesulfonate (50 μg/mL)
The results shown below for Forms I and II were calculated as weight percent.

Data set [6] is described as follows: Bulk density. The following applies: compared with other forms.
[7] abbreviates: 65% RH, 48 hrs, footnote a = sample becomes a gummy semisolid.
Setting [8] is: 76% RH, 48 hrs, footnote a = sample becomes a gummy semisolid.
The mark [9] stands for this setting: 100% RH, 48 hrs, footnotes a = gummy semisolid, b = converts to Form IV upon exposure to ambient humidity.
[10] abbreviates: solid state, 40 °C, in the dark.
The mark [11] stands for this setting: solid state, 60 °C, in the dark.
Setting [12] is: solid state, 80 °C, in the dark.
[13] abbreviates: solid state, 40 °C, in the dark, read-out: % Initial.
Setting [14] is: solid state, 60 °C, in the dark, read-out: % Initial.
Setting [15] is: solid state, 80 °C, in the dark, read-out: % Initial.

As for `CS(=O)(=O)N1CC2(CCN(C(=O)OCc3ccccc3)CC2)c2ccccc21` [Form 1, CBZ-Spiroindoline-methanesulfonamide], the “solubility of 1” value in data set [1] came to 2.36 mg/mL.
For `CC(C)(N)C(=O)N[C@H](COCc1ccccc1)C(=O)N1CCC2(CC1)CN(S(C)(=O)=O)c1ccccc12` [Form I, N-[1(R)-[(1,2-dihydro-1-methanesulfonylspiro[3H-indole-3,4'-piperdin]-1'-yl)carbonyl]-2-(phenylmethyloxy)ethyl]-2-amino-2-methylpropanamide methanesulfonate], the hygroscopicity in words result in data set [2] is “non-hygroscopic; also recorded: the wet crystals are very hygroscopic; also recorded: No substantial moisture increase is exhibited by Form I except when stored above 76% RH”. Besides, the “% Gain/Loss” value in data set [2] (0% RH, 48 hrs) is -0.02%; in data set [2] (7% RH, 96 hrs), “+0.4%”; in data set [2] (11% RH, 48 hrs), -0.05%; in data set [2] (22% RH, 96 hrs), “+0.3%”; in data set [2] (47% RH, 48 hrs) it was “+0.21%”; in data set [2] (47% RH, 96 hrs), “+0.5%”. Moreover, the “% Gain/Loss” value is on record as “+0.37%” in data set [2] (setting [7]); “+0.6%” in data set [2] (68% RH, 96 hrs); “+0.12%” in data set [2] (setting [8]); “+12.9%” in data set [2] (88% RH, 96 hrs, * = deliquescent material); over 12.0% in data set [2] (setting [9]); “+23.9%” in data set [2] (100% RH, 96 hrs, * = deliquescent material). In addition, the “change of sample on storage at high humidity (footnote)” value in data set [2] is recorded as “deliquescent material”. Also, the “water content (total volatiles by TGA)” value in data set [3] worked out at 0.79 wt %. Further, the “water content in words” value in data set [3] is given as “relatively anhydrous”. For the same compound, the solubility was over 100 mg/mL in data set [4] (distilled water, water, room temperature, read-out: solubility in distilled water); over 100 mg/mL in data set [4] (ethanol/water 25/75, organic solvent or mixture, % Ethanol/H2O 25/75, read-out: Solubility in ethanol/water); over 100 mg/mL in data set [4] (ethanol/water 50/50, organic solvent or mixture, % Ethanol/H2O 50/50, read-out: Solubility in ethanol/water); over 90 mg/mL in data set [4] (ethanol/water 75/25, organic solvent or mixture, % Ethanol/H2O 75/25, read-out: Solubility in ethanol/water); over 90 mg/mL in data set [4] (organic solvent or mixture, 100% ethanol, read-out: Solubility in ethanol). In data set [4], the solubility in isopropanol is listed as 4.6 mg/niL. For the same compound, the “thermal stability in words” value in data set [5] is “good thermal stability”. Moreover, the remaining at 1008 h amounted to 100% in data set [5] (setting [10]), 101% in data set [5] (setting [11]) and 101% in data set [5] (setting [12]). The remaining at 2856 h was found to be 98.7% in data set [5] (setting [10]), 101% in data set [5] (setting [11]) and 99.4% in data set [5] (setting [12]).
Take `CC(C)(N)C(=O)N[C@H](COCc1ccccc1)C(=O)N1CCC2(CC1)CN(S(C)(=O)=O)c1ccccc12` [Form II, N-[1(R)-[(1,2-dihydro-1-methanesulfonylspiro[3H-indole-3,4'-piperdin]-1'-yl)carbonyl]-2-(phenylmethyloxy)ethyl]-2-amino-2-methylpropanamide methanesulfonate]: in data set [2], the hygroscopicity in words result is “hygroscopic and exhibits a large increase in moisture starting at 65% RH”. In addition, the “% Gain/Loss” value in data set [2] (0% RH, 48 hrs) is “+0.08%”; in data set [2] (11% RH, 48 hrs), “+0.02%”; in data set [2] (33% RH, 48 hrs), “+0.33%”; in data set [2] (47% RH, 48 hrs), “+0.39%”; in data set [2] (setting [7]) it was over 10.0%; in data set [2] (setting [8]), over 10.0%. Besides, the “% Gain/Loss” value in data set [2] (setting [9]) was over 10.0%. In addition, the “change of sample on storage at high humidity (footnote)” value in data set [2] is on record as “Sample becomes a gummy semisolid; also recorded: Converts to Form IV upon exposure to ambient humidity”. Also, the “water content (total volatiles by TGA)” value in data set [3] was 0.56 wt %. Also, the solubility in data set [4] (buffer ph 4-9, RT, pH 4-9, read-out: aqueous solubility in buffered solutions) was over 100 mg/mL. Besides, the “solubility in IPA” value in data set [4] (crystalline material from EtOAc-EtOH) was found to be 12 mg/mL. The solubility in isopropanol in data set [4] turned out to be 12.3 mg/mL. For the same compound, the “% Initial” value in data set [5] (80 °C, 12 Wks, in the dark, 120960 min) was determined as 100.4%. The “thermal stability in words” value in data set [5] is “good thermal stability”. In addition, the remaining at 168 h in data set [5] (setting [13]) came out at 99.7%; in data set [5] (setting [14]) it was 99.4%; in data set [5] (setting [15]) it was 99.2%. The remaining at 336 h in data set [5] (setting [13]) amounted to 101%; in data set [5] (setting [14]) it was 99.6%; in data set [5] (setting [15]), 100%. Besides, the remaining at 672 h in data set [5] (setting [13]) worked out at 99.5%; in data set [5] (setting [14]) it was 100%; in data set [5] (setting [15]), 99.2%. Also, the remaining at 4032 h came to 100% in data set [5] (setting [13]) and 101% in data set [5] (setting [14]). In addition, the results for the remaining at 1344 h in data set [5] (setting [14]) and in data set [5] (setting [15]) were 100% and 99.8%, respectively. Besides, in data set [5] (solid state, 60 °C, 12 Wks, in the dark, read-out: % Initial), the remaining at 2016 h was 101%.
Regarding `CC(C)(N)C(=O)N[C@H](COCc1ccccc1)C(=O)N1CCC2(CC1)CN(S(C)(=O)=O)c1ccccc12` [Form III, N-[1(R)-[(1,2-dihydro-1-methanesulfonylspiro[3H-indole-3,4'-piperdin]-1'-yl)carbonyl]-2-(phenylmethyloxy)ethyl]-2-amino-2-methylpropanamide methanesulfonate], the hygroscopicity in words entry in data set [2] is “shows an increase in moisture after 48-hr storage at 33% RH”. In addition, the “% Gain/Loss” value in data set [2] (11% RH, 48 hrs) was -0.15%; in data set [2] (33% RH, 48 hrs), “+2.23%”; in data set [2] (47% RH, 48 hrs), “+3.99%”; in data set [2] (setting [8]), “+3.76%”. For the same compound, the “water content (total volatiles by TGA)” value in data set [3] is 4.5-5.0 wt %.
In the case of `CC(C)(N)C(=O)N[C@H](COCc1ccccc1)C(=O)N1CCC2(CC1)CN(S(C)(=O)=O)c1ccccc12` [Form IV, N-[1(R)-[(1,2-dihydro-1-methanesulfonylspiro[3H-indole-3,4'-piperdin]-1'-yl)carbonyl]-2-(phenylmethyloxy)ethyl]-2-amino-2-methylpropanamide methanesulfonate], the “% Gain/Loss” value in data set [2] (0% RH, 48 hrs) is -7.8%; in data set [2] (11% RH, 48 hrs), -4.9%; in data set [2] (33% RH, 48 hrs) it was “+0.3%”; in data set [2] (47% RH, 48 hrs) it was “+0.7%”; in data set [2] (66% RH, 48 hrs), “+1.4%”; in data set [2] (setting [8]) it was “+1.5%”. Also, in data set [2] (setting [9]), the “% Gain/Loss” value is given as “+5.3%”. Also, in data set [3], the “water content (total volatiles by TGA)” value was 9.5-10.0 wt %. The “moles of water per mole of compound” value in data set [3] is recorded as 3.5 moles of water per mole. Also, the bulk density entry in data set [6] is “higher bulk density than other forms”.
Consider `CC(C)(N)C(=O)N[C@H](COCc1ccccc1)C(=O)N1CCC2(CC1)CN(S(C)(=O)=O)c1ccccc12` [Form V, N-[1(R)-[(1,2-dihydro-1-methanesulfonylspiro[3H-indole-3,4'-piperdin]-1'-yl)carbonyl]-2-(phenylmethyloxy)ethyl]-2-amino-2-methylpropanamide methanesulfonate], for which the hygroscopicity in words entry in data set [2] is listed as “hygroscopic”. In addition, in data set [3], the “moles of water per mole of compound” value was 1 moles of water per mole.
